# Reference: US20020091086A1, “Peptides that block viral infectivity and methods of use thereof” (priority 1999, published 2002)
# Where two headings read alike, the source gives them in different places. Peptide text beside a SMILES is read from it.
# What was measured:
# [1] = tested on: HIV-1; settings: 100 μM, H9 cells
# Excerpt: (§1) In this example, the methods that were used to analyze the ability of various tripeptides to inhibit HIV-1, HIV-2, and SIV replication are disclosed. In Experiments 1 and 2, approximately 200,000 H9 cells were infected with HIV-1, HIV-2 or SIV at 25 TCID50 to test the inhibitory effect of the following synthesized tripeptides LKA-NH2, ILK-NH2, GPQ-NH2, GHK-NH2, GKG-NH2, ACQ-NH2, CQG-NH2, ARV-NH2, KAR-NH2, HKA-NH2, GAT-NH2, KAL-NH2, and GPG-NH2. Accordingly, the H9 cells were resuspended with or without the different peptides (approximately 100 μM) in 1 ml of RPMI 1640 medium supplemented with 10% (v/v) heat-inactivated fetal bovine serum (FBS), penicillin (100 u/ml), and streptomycin (100 u/ml), all available through GIBCO, and Polybrene (2 μg/ml), available through Sigma. Thereafter, viruses were added at 25 TCID50 in a volume of 20-30μl. Cells were incubated with virus at 37° C. for 1 hr then pelleted at 170×g for 7 minutes. The cells were then washed three times in RPMI medium without peptides at room temperature and pelleted at 170×g for 7 minutes, as above. After the final wash, the cells were resuspended in RPMI culture medium containing the peptides in a 24-well plate (Costar corporation) and were kept at 37° C. in 5% CO2 with humidity.
# (§2) Culture supernatants were collected and analyzed when the medium was changed at 4, 7, 10, and 14 days post infection. To monitor the replication of virus, reverse transcriptase (RT) activity in the supernatants was assayed using a commercially available Lenti-RT activity kit. (Cavidi Tech, Uppsala, Sweden). The amount of RT was determined with the aid of a regression line of standards. The results are presented as absorbance values (OD) and higher absorbance indicates a higher protein concentration and greater viral infection. Syncytium formation was also monitored by microscopic examination.
# [2] = tested on: SIV; experiment: SIV infectivity assay in H9 cells, RT activity in supernatant; format: cell-based; settings: for SIV infection, result in words: summary of Experiments 1-3
# [3] = tested on: HIV-1; settings: H9 cells; for Day 10 RT HIV-1 (1:5): supernatant diluted 5-fold; for HIV-1 infection, result in words: summary of Experiments 1-5
# Excerpt: as §1, §2
# In Experiment 3, (Table 4), approximately 200,000 H9 cells were infected with HIV-1, HIV-2 or SIV at 25 TCID50 to test the inhibitory effect of different concentrations of peptides GPG-NH2, GKG-NH2 and CQG-NH2 and combinations of these peptides (the indicated concentration corresponds to the concentration of each tripeptide). As above, H9 cells were resuspended with or without the different peptides at varying concentrations in 1 ml of RPMI 1640 medium supplemented with 10% (v/v) heat-inactivated fetal bovine serum (FBS), penicillin (100 u/ml), and streptomycin (100 u/ml), and Polybrene (2 μg/ml). Thereafter, viruses were added at 25 TCID50 in a volume of 20-30 μl. Cells were incubated with the indicated virus at 37° C. for 1 hr then pelleted at 170×g for 7 minutes. The cells were then washed three times in RPMI medium without peptides at room temperature and pelleted at 170×g for 7 minutes, as above. After the final wash, the cells were resuspended in RPMI culture medium containing the peptides in a 24-well plate (Costar corporation) and kept at 37° C. in 5% CO2 with humidity.
# Culture supernatants were collected when the medium was changed at 4, 7, and 11 days post infection. As above, the replication of each virus was monitored by detecting reverse transcriptase (RT) activity in the supernatants using the Lenti-RT activity kit. (Cavidi Tech). The amount of RT was determined with the aid of a regression line of standards. The results are presented as absorbance values (OD) and higher absorbance indicates a higher protein concentration and greater viral infection.
# In Experiment 4, (Table 5) approximately 200,000 H9 cells were infected with HIV-1 at 25 TCID50 to test the inhibitory effect of different concentrations of peptides GPG-NH2, GKG-NH2 and CQG-NH2 and combinations of these peptides (the indicated concentration corresponds to the total concentration of tripeptide).
# [4] = Experiment 3, 5 μM (of each tripeptide)
# [5] = Experiment 3, 20 μM (of each tripeptide)
# [6] = Experiment 4, 5 μM (total concentration of tripeptide)
# [7] = Experiment 4, 15 μM (total concentration of tripeptide)
molecule,measurement,setting,value
"NCCCC[C@H](NC(=O)CN)C(=O)NCC(N)=O [GKG-NH2, glycyl-lysyl-glycine amide] (H-Gly-Lys-Gly-NH2)",HIV-1 Syncytia,[1]; Experiment 1,neg
same,HIV-1 Syncytia,[1]; Experiment 2,neg
same,Day 7 RT SIV,"[2]; Experiment 1, 100 μM",0.421 OD
same,Day 10 RT SIV,"[2]; Experiment 1, 100 μM",0.099 OD
same,Day 7 RT SIV,"[2]; Experiment 2, 100 μM",0.116 OD
same,Day 10 RT SIV,"[2]; Experiment 2, 100 μM",0.204 OD
same,Day 7 RT SIV,[2]; [4],0.271 OD
same,Day 10 RT SIV,[2]; [4],1.709 OD
same,Day 7 RT SIV,[2]; [5],1.531 OD
same,Day 10 RT SIV,[2]; [5],2.482 OD
same,Day 7 RT SIV,"[2]; Experiment 3, 100 μM",1.005 OD
same,Day 10 RT SIV,"[2]; Experiment 3, 100 μM",1.382 OD
same,"SIV infection, result in words",[2],inhibit or prevent HIV-2 and SIV infection
same,Day 7 RT HIV-1,"[3]; Experiment 1, 100 μM",0.080 OD
same,Day 10 RT HIV-1,"[3]; Experiment 1, 100 μM",0.074 OD
same,Day 7 RT HIV-1,"[3]; Experiment 2, 100 μM",0.145 OD
same,Day 10 RT HIV-1,"[3]; Experiment 2, 100 μM",0.345 OD
same,Day 7 RT HIV-1,[3]; [4],1.587 OD
same,Day 10 RT HIV-1,[3]; [4],1.683 OD
same,Day 7 RT HIV-1,[3]; [5],1.616 OD
same,Day 10 RT HIV-1,[3]; [5],2.036 OD
same,Day 7 RT HIV-1,"[3]; Experiment 3, 100 μM",0.823 OD
same,Day 10 RT HIV-1,"[3]; Experiment 3, 100 μM",1.520 OD
same,Day 7 RT HIV-1,[3]; [6],3.303 OD
same,Day 10 RT HIV-1 (1:5),[3]; [6],1.287 OD
same,Day 7 RT HIV-1,[3]; [7],3.551 OD
same,Day 10 RT HIV-1 (1:5),[3]; [7],1.530 OD
same,Day 7 RT HIV-1,"[3]; Experiment 4, 45 μM",3.126 OD
same,Day 10 RT HIV-1 (1:5),"[3]; Experiment 4, 45 μM",0.410 OD
same,"HIV-1 infection, result in words",[3],inhibited and/or prevented HIV-1 infection
"NCC(=O)N1CCC[C@H]1C(=O)NCC(N)=O [GPG-NH2, glycyl-prolyl-glycine amide] (H-Gly-Pro-Gly-NH2)",HIV-1 Syncytia,[1]; Experiment 1,neg
same,HIV-1 Syncytia,[1]; Experiment 2,neg
same,Day 7 RT SIV,"[2]; Experiment 1, 100 μM",0.138 OD
same,Day 10 RT SIV,"[2]; Experiment 1, 100 μM",0.103 OD
same,Day 7 RT SIV,"[2]; Experiment 2, 100 μM",0.067 OD
same,Day 10 RT SIV,"[2]; Experiment 2, 100 μM",0.139 OD
same,Day 7 RT SIV,[2]; [4],0.753 OD
same,Day 10 RT SIV,[2]; [4],2.201 OD
same,Day 7 RT SIV,[2]; [5],0.197 OD
same,Day 10 RT SIV,[2]; [5],0.779 OD
same,"SIV infection, result in words",[2],inhibit or prevent HIV-2 and SIV infection
same,Day 7 RT HIV-1,"[3]; Experiment 1, 100 μM",0.068 OD
same,Day 10 RT HIV-1,"[3]; Experiment 1, 100 μM",0.074 OD
same,Day 7 RT HIV-1,"[3]; Experiment 2, 100 μM",0.090 OD
same,Day 10 RT HIV-1,"[3]; Experiment 2, 100 μM",0.143 OD
same,Day 7 RT HIV-1,[3]; [4],1.527 OD
same,Day 10 RT HIV-1,[3]; [4],2.398 OD
same,Day 7 RT HIV-1,[3]; [5],0.239 OD
same,Day 10 RT HIV-1,[3]; [5],0.692 OD
same,Day 7 RT HIV-1,[3]; [6],2.970 OD
same,Day 10 RT HIV-1 (1:5),[3]; [6],1.107 OD
same,Day 7 RT HIV-1,[3]; [7],0.894 OD
same,Day 10 RT HIV-1 (1:5),[3]; [7],0.095 OD
same,Day 7 RT HIV-1,"[3]; Experiment 4, 45 μM",0.177 OD
same,Day 10 RT HIV-1 (1:5),"[3]; Experiment 4, 45 μM",0.034 OD
same,Day 7 RT HIV-1,"[3]; Experiment 4, 100 μM",0.150 OD
same,Day 10 RT HIV-1 (1:5),"[3]; Experiment 4, 100 μM",0.033 OD
same,"HIV-1 infection, result in words",[3],inhibited and/or prevented HIV-1 infection
cystyl-glutaminyl-glycine amide [CQG-NH2],HIV-1 Syncytia,[1]; Experiment 1,neg
same,HIV-1 Syncytia,[1]; Experiment 2,neg
same,Day 7 RT SIV,"[2]; Experiment 1, 100 μM",0.747 OD
same,Day 10 RT SIV,"[2]; Experiment 1, 100 μM",0.110 OD
same,Day 7 RT SIV,"[2]; Experiment 2, 100 μM",0.120 OD
same,Day 10 RT SIV,"[2]; Experiment 2, 100 μM",1.761 OD
same,Day 7 RT SIV,[2]; [4],1.159 OD
same,Day 10 RT SIV,[2]; [4],2.821 OD
same,Day 7 RT SIV,[2]; [5],0.615 OD
same,Day 10 RT SIV,[2]; [5],2.158 OD
same,Day 7 RT SIV,"[2]; Experiment 3, 100 μM",0.795 OD
same,Day 10 RT SIV,"[2]; Experiment 3, 100 μM",2.286 OD
same,"SIV infection, result in words",[2],inhibit or prevent HIV-2 and SIV infection
same,Day 7 RT HIV-1,"[3]; Experiment 1, 100 μM",0.091 OD
same,Day 10 RT HIV-1,"[3]; Experiment 1, 100 μM",0.108 OD
same,Day 7 RT HIV-1,"[3]; Experiment 2, 100 μM",0.143 OD
same,Day 10 RT HIV-1,"[3]; Experiment 2, 100 μM",1.546 OD
same,Day 7 RT HIV-1,[3]; [4],1.547 OD
same,Day 10 RT HIV-1,[3]; [4],2.028 OD
same,Day 7 RT HIV-1,[3]; [5],1.578 OD
same,Day 10 RT HIV-1,[3]; [5],1.484 OD
same,Day 7 RT HIV-1,"[3]; Experiment 3, 100 μM",1.520 OD
same,Day 10 RT HIV-1,"[3]; Experiment 3, 100 μM",2.014 OD
same,Day 7 RT HIV-1,[3]; [6],2.991 OD
same,Day 10 RT HIV-1 (1:5),[3]; [6],1.459 OD
same,Day 7 RT HIV-1,[3]; [7],2.726 OD
same,Day 10 RT HIV-1 (1:5),[3]; [7],1.413 OD
same,Day 7 RT HIV-1,"[3]; Experiment 4, 45 μM",3.124 OD
same,Day 10 RT HIV-1 (1:5),"[3]; Experiment 4, 45 μM",1.364 OD
same,"HIV-1 infection, result in words",[3],inhibited and/or prevented HIV-1 infection
